The record followed here is US9221827B2, “Antimicrobial compounds and methods of making and using the same” (Melinta Therapeutics, Inc., priority 2011, dated 2015).

In the experiment the test system is Escherichia coli strain ATCC25922. The experiment in a line: standard microdilution assay to determine minimum inhibitory concentrations (MICs). Conditions: Escherichia coli strain ATCC25922, microdilution. The class given is cell-based. In short, it runs like this: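 Broth microdilution per CLSI (M7-A8/M100-S20), 100 μl final volume, with reference-strain quality control; MIC is the lowest inhibitory concentration. Scored "+"/"−" against a 16 micrograms/ml cutoff, "N/A" where unavailable.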
Turning to `CCc1cc(CCCCN)cc(-c2cc3cn(-c4ccc(CNCCCNC(=N)N)cc4)c(=O)nc3[nH]2)c1` [Compound 123], the “E. coli ATCC25922 MIC” value is listed as “+ (a “+” indicates that the compound has an MIC value of 16 micrograms/ml or less)”. On to `CC(C)(CN)CCc1cc(F)c(Cl)c(-c2cc3cn(-c4ccc(CNCCCNC(=N)N)cc4)c(=O)nc3[nH]2)c1` [Compound 125], for which the “E. coli ATCC25922 MIC” value is “+ (a “+” indicates that the compound has an MIC value of 16 micrograms/ml or less)”. The same measure for `CC(CCN)Cc1cc(F)c(Cl)c(-c2cc3cn(-c4ccc(CNCCCNC(=N)N)cc4)c(=O)nc3[nH]2)c1` (stereo not shown) [Compound 128]: “+ (a “+” indicates that the compound has an MIC value of 16 micrograms/ml or less)”; for `CC(CCN)Cc1cc(-c2cc3cn(-c4ccc(CNCCCNC(=N)N)cc4)c(=O)nc3[nH]2)cc(F)c1Cl` (stereo not shown) [Compound 129]: “+ (a “+” indicates that the compound has an MIC value of 16 micrograms/ml or less)”. For the compound `CC(C)(N)CCCc1ccc(F)c(-c2cc3cn(-c4ccc(CNCCCNC(=N)N)cc4)c(=O)nc3[nH]2)c1` [Compound 130], the “E. coli ATCC25922 MIC” value was “+ (a “+” indicates that the compound has an MIC value of 16 micrograms/ml or less)”.

Consider `CC(C)(N)CCCc1cc(OC(F)(F)F)cc(-c2cc3cn(-c4ccc(CNCCCNC(=N)N)cc4)c(=O)nc3[nH]2)c1` [Compound 131], for which the “E. coli ATCC25922 MIC” value is recorded as “+ (a “+” indicates that the compound has an MIC value of 16 micrograms/ml or less)”. Consider `CC(CCN)Cc1cc(Cl)c(F)c(-c2cc3cn(-c4ccc(CNCCCNC(=N)N)cc4)c(=O)nc3[nH]2)c1` (stereo not shown) [Compound 132], for which the “E. coli ATCC25922 MIC” value is “+ (a “+” indicates that the compound has an MIC value of 16 micrograms/ml or less)”. The result for `Cc1cc(CCCCN)cc(-c2cc3cn(-c4ccc(CNCCCNC(=N)N)cc4)c(=O)nc3[nH]2)c1F` [Compound 133] reads “+ (a “+” indicates that the compound has an MIC value of 16 micrograms/ml or less)”; that for `Cc1c(C#N)cc(CCCCN)cc1-c1cc2cn(-c3ccc(CNCCCNC(=N)N)cc3)c(=O)nc2[nH]1` [Compound 134], “+ (a “+” indicates that the compound has an MIC value of 16 micrograms/ml or less)”; that for `CCc1cc(CCCCN)cc(-c2cc3cn(-c4ccc(CNCCCNC(=N)N)cc4)c(=O)nc3[nH]2)c1F` [Compound 135], “+ (a “+” indicates that the compound has an MIC value of 16 micrograms/ml or less)”. On to `N=C(N)NCCCNCc1ccc(-n2cc3cc(-c4cc(CCC5(CN)CC5)ccc4F)[nH]c3nc2=O)cc1` [Compound 136], for which the “E. coli ATCC25922 MIC” value is “+ (a “+” indicates that the compound has an MIC value of 16 micrograms/ml or less)”. The same measure for `N=C(N)NCCCNCc1ccc(-n2cc3cc(-c4cc(CCC5(CN)CC5)cc(OC(F)(F)F)c4)[nH]c3nc2=O)cc1` [Compound 137]: “+ (a “+” indicates that the compound has an MIC value of 16 micrograms/ml or less)”; for `N=C(N)NCCCNCc1ccc(-n2cc3cc(-c4cc(CCC5(CN)CCC5)cc(F)c4Cl)[nH]c3nc2=O)cc1` [Compound 138]: “+ (a “+” indicates that the compound has an MIC value of 16 micrograms/ml or less)”. The same measure for `N=C(N)NCCCNCc1ccc(-n2cc3cc(-c4cc(CCCCN)c(OC(F)F)cc4F)[nH]c3nc2=O)cc1` [Compound 139]: “+ (a “+” indicates that the compound has an MIC value of 16 micrograms/ml or less)”; for `CC(CN)CN1CC(NC(=O)Nc2nc(=O)c(-c3ccc(CNCCCNC(=N)N)cc3)c[nH]2)CC1COCc1c(Cl)cccc1Cl` (stereo not shown) [Compound 150]: “− (a “−” indicates that the compound has an MIC value greater than 16 micrograms/ml)”.

As for `CNC[C@@H]1C[C@@H](NC(=O)Nc2nc(=O)c(-c3ccc(CNCCCNC(=N)N)cc3)c[nH]2)CN1C[C@@H](C)CN` [Compound 151], the “E. coli ATCC25922 MIC” value was “+ (a “+” indicates that the compound has an MIC value of 16 micrograms/ml or less)”.
